Counter-ions that a name gives are not always drawn.
Legend:
Proteus mirabilis C977 = experiment: MIC, microtitre method (Example 30); conditions: C977, read-out: Minimum Inhibitory Concentration
Method: (§1) The cultures were incubated overnight and the points of bacterial growth recorded next morning by observing the turbidity of the culture.

Streptococcus faecalis = experiment: MIC, microtitre method (Example 30); conditions: Enterococcus faecalis, read-out: Minimum Inhibitory Concentration
Method: as §1

Proteus mirabilis 899 = experiment: microbe, parasite or virus in culture; assay type: cell-based; conditions: Proteus mirabilis, 899, read-out: Minimum Inhibitory Concentration
Pseudomonas aeruginosa A = experiment: MIC, microtitre method (Example 30); conditions: read-out: Minimum Inhibitory Concentration
Method: as §1

[1] = test system: Streptococcus pyogenes CN 10; experiment: MIC, microtitre method (Example 30); conditions: CN10, read-out: Minimum Inhibitory Concentration
Method: as §1

Staph. aureus Oxford = experiment: MIC, method of Example 30 with 1/100 dilution of overnight broth (Example 46); conditions: Staphylococcus aureus
Method: as §1

[2] = test system: Staphylococcus aureus (Russell); experiment: MIC / synergism, microtitre method (Example 42); assay type: cell-based; conditions: Staphylococcus aureus; agent alone (Tables 5, 6); inoculum final dilution 0.5 ×10^-2, 37° C overnight; read-out: Minimum Inhibitory Concentration
[3] = test system: Staphylococcus aureus (Russell); experiment: MIC, microtitre method (Example 30); conditions: read-out: Minimum Inhibitory Concentration
Method: as §1

Klebsiella oxytocum = experiment: MIC, microtitre method (Example 30); conditions: read-out: Minimum Inhibitory Concentration
Method: as §1

[4] = test system: Enterobacter aerogenes T 624; experiment: MIC, microtitre method (Example 30); conditions: Klebsiella aerogenes, T624, read-out: Minimum Inhibitory Concentration
Method: as §1

Escherchia coli 10418 = experiment: MIC, method of Example 30 with 1/100 dilution of overnight broth (Example 46)
Method: as §1

Proteus vulgaris W090 = experiment: MIC, microtitre method (Example 30); conditions: W090, read-out: Minimum Inhibitory Concentration
Method: as §1

Providentia stuartii = experiment: MIC, microtitre method (Example 30); conditions: read-out: Minimum Inhibitory Concentration
Method: as §1

Enterobacter cloacae [5] = experiment: MIC / synergism, microtitre method (Example 42); assay type: cell-based; conditions: agent alone, inoculum final dilution 0.5 ×10^-2, 37° C overnight, read-out: Minimum Inhibitory Concentration
Shigella sonnei = experiment: MIC, microtitre method (Example 30); conditions: read-out: Minimum Inhibitory Concentration
Method: as §1

Bacillus subtilis = experiment: MIC, microtitre method (Example 30); conditions: read-out: Minimum Inhibitory Concentration
Method: as §1

Bacillus subtilis A = experiment: MIC, method of Example 30 with 1/100 dilution of overnight broth (Example 46); conditions: Bacillus subtilis
Method: as §1

Acinetobacter anitratus = experiment: MIC, microtitre method (Example 30); conditions: Acinetobacter calcoaceticus, read-out: Minimum Inhibitory Concentration
Method: as §1

Enterobacter cloacae [6] = experiment: MIC, microtitre method (Example 30); conditions: read-out: Minimum Inhibitory Concentration
Method: as §1

Serratia marcescens [7] = experiment: MIC, microtitre method (Example 30); conditions: read-out: Minimum Inhibitory Concentration
Method: as §1

[8] = test system: Staphylococcus aureus (Oxford H); experiment: MIC, microtitre method (Example 30); conditions: read-out: Minimum Inhibitory Concentration
Method: as §1

[9] = test system: Escherichia coli NCTC 10481; experiment: MIC / synergism, microtitre method (Example 42); assay type: cell-based; conditions: NCTC10481, agent alone, inoculum final dilution 0.5 ×10^-2, 37° C overnight, read-out: Minimum Inhibitory Concentration
Escherichia coli B 11 = experiment: MIC / synergism, microtitre method (Example 42); assay type: cell-based; conditions: B11, agent alone, inoculum final dilution 0.5 ×10^-2, 37° C overnight, read-out: Minimum Inhibitory Concentration
Staph. aureus Russell = experiment: MIC, method of Example 30 with 1/100 dilution of overnight broth (Example 46); conditions: Staphylococcus aureus
Method: as §1

Klebsiella aerogenes = experiment: MIC, microtitre method (Example 30); conditions: read-out: Minimum Inhibitory Concentration
Method: as §1

Staphylococcus aureus = experiment: MIC / synergism, microtitre method (Example 42); assay type: cell-based; conditions: Staphylococcus aureus; agent alone (Tables 5, 6); inoculum final dilution 0.5 ×10^-2, 37° C overnight; read-out: Minimum Inhibitory Concentration
Salmonella typhimurium = experiment: MIC, microtitre method (Example 30); conditions: Salmonella enterica, read-out: Minimum Inhibitory Concentration
Method: as §1

Serratia marcescens [10] = experiment: MIC / synergism, microtitre method (Example 42); assay type: cell-based; conditions: agent alone, inoculum final dilution 0.5 ×10^-2, 37° C overnight, read-out: Minimum Inhibitory Concentration
[11] = test system: Escherichia coli NCTC 10418; experiment: MIC, microtitre method (Example 30); conditions: NCTC10418, read-out: Minimum Inhibitory Concentration
Method: as §1

Klebsiella sp 62 = experiment: MIC / synergism, microtitre method (Example 42); assay type: cell-based; conditions: agent alone, inoculum final dilution 0.5 ×10^-2, 37° C overnight, read-out: Minimum Inhibitory Concentration
[12] = Blood and tissue levels of clavulanic acid in female mice; assay type: in vivo

O=C(O)[C@H]1/C(=C/CO)O[C@@H]2CC(=O)N21 [clavulanic acid sodium salt, 3-(β-hydroxyethylidine)-7-oxo-4-oxa-1-azabicyclo [3,2,0]heptane-2-carboxylic acid sodium salt]
MIC (Proteus mirabilis C977): 62 µg/mL | MIC (Streptococcus faecalis): > 500 µg/mL | MIC (Proteus mirabilis 899): > 500 µg/mL | MIC (Pseudomonas aeruginosa A): 500 µg/mL | MIC [1]: 125 µg/mL | MIC (Staph. aureus Oxford): 15 µg/mL | MIC [2]: 15 µg/mL | MIC [3]: 7.5 µg/mL | MIC (Klebsiella oxytocum): 62 µg/mL | MIC [4]: 31 µg/mL | MIC (Escherchia coli 10418): 125 µg/mL | MIC (Proteus vulgaris W090): 31 µg/mL | MIC (Providentia stuartii): 125 µg/mL | MIC (Enterobacter cloacae [5]): 62 µg/mL | MIC (Shigella sonnei): 62 µg/mL | MIC (Bacillus subtilis): 62 µg/mL | MIC (Bacillus subtilis A): 62 µg/mL | MIC (Acinetobacter anitratus): 125 µg/mL | MIC (Enterobacter cloacae [6]): 62 µg/mL | MIC (Serratia marcescens [7]): 125 µg/mL | MIC [8]: 7.5 µg/mL | MIC [9]: 31 µg/mL | MIC (Escherichia coli B 11): 62 µg/mL | MIC (Staph. aureus Russell): 15 µg/mL | MIC (Klebsiella aerogenes): 31 to 62 µg/mL | MIC (Staphylococcus aureus): 62 µg/mL | MIC (Salmonella typhimurium): 31 µg/mL | MIC (Serratia marcescens [10]): 125 µg/mL | MIC [11]: 31 µg/mL | MIC (Klebsiella sp 62): 31 µg/mL | levels of clavulanic acid after oral administration ([12]; oral administration of 100 mg/kg): useful levels of clavulanic acid can be obtained | blood and tissue levels of clavulanic acid ([12]; subcutaneous administration of 100 mg/kg): > 5 µg/mL
